Source: BindingDB's records for doi:10.1016/s0960-894x(03)00648-6 (Ariad Pharmaceuticals, 2003)

Assay: Inhibition of Src-mediated dentine resorption in rabbit-osteoclast assay

Question: With N[C@H]1CC[C@H](Nc2nc(Nc3ccccc3)c3ncn(C4CCCC4)c3n2)CC1 as the compound, how does the IC50 read?
Answer: The IC50 was 0.141 µM.

Question: For N[C@H]1CC[C@H](Nc2nc(Nc3ccc(P(=O)(O)O)c(P(=O)(O)O)c3)c3ncn(C4CCCC4)c3n2)CC1, which IC50 is on record?
Answer: The IC50 was 15.7 µM.

Question: For N[C@H]1CC[C@H](Nc2nc(Nc3ccc(C(P(=O)(O)O)P(=O)(O)O)cc3)c3ncn(C4CCCC4)c3n2)CC1, which IC50 is on record?
Answer: The IC50 was 22 µM.

Question: Which IC50 does the source give for N[C@H]1CC[C@H](Nc2nc(Nc3ccc(P(=O)(O)CP(=O)(O)O)cc3)c3ncn(C4CCCC4)c3n2)CC1 here?
Answer: Its IC50 is 0.041 µM.

Question: With O=P(O)(O)C(O)(CCCNc1nc(Nc2ccccc2)c2ncn(C3CCCC3)c2n1)P(=O)(O)O as the compound, how does the IC50 read?
Answer: The IC50 was 48.2 µM.

Question: For CN(C)CCNc1nc(Nc2ccccc2)c2ncn(C3CCCC3)c2n1, which IC50 is on record?
Answer: Its IC50 is 9.81 µM.

Question: For O=P(O)(O)CP(=O)(O)CCCNc1nc(Nc2ccccc2)c2ncn(C3CCCC3)c2n1, which IC50 is on record?
Answer: Its IC50 is 5.23 µM.
